Data reported in patent US7122359B2, “Active-site engineering of nucleotidylyltransferases and general enzymatic methods for the synthesis of natural and “unnatural” UDP- and TDP-nucleotide sugars” (priority 2000, dated 2006).
Entries after “also recorded” stand apart in the source; their conditions may differ.

Tests used:
[1] = target: T1, Salmonella enterica LT2 α-D-glucopyranosyl phosphate thymidylyltransferase (Ep) (Salmonella typhimurium, UniProt P26393); assay: Ep-catalyzed conversion of α-D-hexopyranosyl phosphates and NTP to NDP-sugars, HPLC (FIG. 2); assay type: biochemical; conditions: for activity as Ep substrate with TTP: 5 mM NTP, 10 mM sugar phosphate, 30 min, 37° C.; for utilization as NTP substrate by Ep: NTP substrate specificity
T1 construct: made in house; host or cells: E. coli (E. coli-prfbA-C)
Text: FIG. 2. E^p-Catalyzed Conversion of Substrates wherein superscript indicators (a)–(h) are as follows: (a) Percent conversion=[Ap/(AP+AT)]×100, where AP is the NDP-sugar product peak integration and AT represents the NTP peak integration. HRMS for all observed products reported in the supporting information. (b) Standard retention times: TDP, […]; TTP, 7.2 mm; UDP, 4.0 mm; UTP, 6.1 mm. (c) Commercially available. (d) Coelutes with commercially available standard. […] (f) Adjusted for the 2:1 α/β-28. (g) In contrast to previously published studies (See Lindquist, L; Kaiser, R.; Reeves, P. R.; Lindberg, A. A., Eur J. Biochem, 1993, 211, 763–770). (h) No products observed.
To evaluate the synthetic utility of purified thymidylyltransferase, Ep, α-D-hexopyranosyl phosphate, Mg^+2 and NTP were incubated at about 37° C. for about 30 min and the extent of product formation determined by HPLC. The results of these assays are illustrated in FIG. 2. Confirmation of product formation was based upon HPLC co-elution with commercially available standards and/or HPLC isolation and high resolution mass spectroscopy of the product. […] A reaction containing 5 mM NTP, 10 mM sugar phosphate and 5.5 mM MgCl2 in a total volume of 50 μL 50 mM potassium phosphate buffer, pH 7.5 at 37° C. was initiated by the addition of 3.52 U Ep (1 U=the amount of protein needed to produce 1 μmol TDP-D-glucose min^−1). The reaction was incubated with slow agitation for 30 min at 37° C., quenched with MeOH (50 μL), centrifuged (5 min, 14,000×g) and the supernatant was stored at −20° C. until analysis by HPLC. Samples (20 μL) were resolved on a Sphereclone 5 u SAX column (250×4.6 mm) fitted with a guard column (30×4.6 mm) using a linear gradient (20–60 mM potassium phosphate buffer, pH 5.0, 1.5 mL min^−1, A275 nm).

[2] = target: T1, Salmonella enterica LT2 α-D-glucopyranosyl phosphate thymidylyltransferase (Ep); assay: Ep-catalyzed conversion of aminodeoxy/acetamidodeoxy sugar phosphates with inorganic pyrophosphatase, HPLC (FIG. 4); assay type: biochemical; conditions: 2.5 mM NTP, 5.0 mM sugar phosphate, 10 U inorganic pyrophosphatase, 30 min, 37° C.
Procedure: To evaluate the synthetic utility of thymidylyl-transferase, purified Ep, α-D-glucopyranosyl phosphate, Mg^+2, NTP and inorganic pyrophosphatase were incubated at 37° C. for 30 min and the extent of product formation determined by HPLC. The inorganic pyrophosphatase was included to drive the reaction forward. A reaction containing 2.5 mM NTP, 5.0 mM sugar phosphate, 5.5 mM MgCl2 and 10 U inorganic pyrophosphatase in a total volume of 50 μL 50 mM potassium phosphate buffer, pH 7.5 at 37° C. was initiated by the addition of 3.52 U Ep (1 U=the amount of protein needed to produce […] TDP-D-glucose min^−1). The reaction was incubated with slow agitation for 30 min at 37° C., quenched with MeOH (50 μL), centrifuged (5 min, 14,000×g) and the supernatant was stored at −20° C. until analysis by HPLC. Samples (30 μL) were resolved on a Sphereclone 5u SAX column (150×4.6 mm) fitted with a SecurityGuard ™ cartridge (Phenomenex; Torrance, Calif.) using a linear gradient (50–200 mM potassium phosphate buffer, pH 5.0, 1.5 mL min^−1, A275 nm).
The results of these assays are illustrated in FIG. 4. For each assay, confirmation of product formation was based upon high resolution mass spectroscopy of HPLC-isolated products and, also in some cases, HPLC co-elution with commercially available standards.
A reaction containing 2.5 mM NTP, 5.0 mM sugar phosphate, 5.5 mM MgCl2 and 10 U inorganic pyrophosphatase in a total volume of 50 μL 50 mM potassium phosphate buffer, pH 7.5 at 37° C. was initiated by the addition of 3.52 U Ep (1 U=the amount of protein needed to produce 1 μmol TDP-α-D-glucose min^−1) The reaction was incubated with slow agitation for 30 min at 37° C., quenched with MeOH (50 μL), centrifuged (5 min, 14,000×g) and the supernatant was stored at −20° C. until analysis by HPLC. Samples (30 μL) were resolved on a Sphereclone 5u SAX column (250×4.6 mm) fitted with a guard column (30×4.6 mm) using a linear gradient (50–200 mM potassium phosphate buffer, pH 5.0, 1.5 mL min^−1, A275 nm).

[3] = target: T2, wild-type Ep (Salmonella typhimurium, UniProt P26393); assay: Conversion of sugar phosphates by wild-type enzyme (FIG. 11); assay type: biochemical, Salmonella enterica LT2
T2 construct: made in house; host or cells: E. coli (E. coli-prfbA-C)
Procedure: (§1) FIG. 11. Percent conversion of sugar phosphates according to the present invention by wild-type and mutant enzymes. The alterations from native substrate (Glc-1-P,1) are highlighted in red. For the mutant pool, mutants Asp41Asn, Glu62Asp, Thr201A and Trp224His were pooled, concentrated and an aliquote constituting 60 μg of each mutant (corresponding to 3.5U Ep) was utilized for the assay.
Percent conversion was determined as described in Jiang, J., Biggins, J. B. & Thorson, J. S. A General Enzymatic Method for the Synthesis of Natural and “Unnatural” UDP- and TDP-Nucleotide Sugars. J. Am. Chem. Soc. 122, 6803–6804 (2000).
(§2) Assays for product formation and steady state kinetics were accomplished using conditions similar to those described. in Jiang, J., Biggins, J. B. & Thorson, J. S. A General Enzymatic Method for the Synthesis of Natural and “Unnatural” UDP- and TDP-Nucleotide Sugars. J. Am. Chem. Soc. 122, 6803-6804 (2000). For the mutant pool assays, an aliquot which contained an eqimolar ratio of each mutant (60 μg) was utilized.

[4] = target: T3, Ep Trp224His mutant (Salmonella typhimurium, UniProt P26393, W224H); assay: Individual mutant analysis: Trp224His; assay type: biochemical, Salmonella enterica LT2; conditions: deconvolution of the mutant pool
T3 construct: made in house
Text: Thr102Ala, on the other hand, was responsible for the 2-fold increase in the conversion of (108). […] Yet, cumulatively, this small set of directed mutants was able to successfully turn over three of four targeted “unnatural” substrates. […] This Ep variant will serve as an excellent foundation for second generation double mutants.
as §2

[5] = tested on: mutant pool (Asp41Asn, Glu62Asp, Thr201A and Trp224His Ep mutants); assay: Conversion of sugar phosphates by pooled Ep mutants (FIG. 11); assay type: biochemical, Salmonella enterica LT2; conditions: 60 μg of each mutant
Procedure: as §1
As a rapid means to assay the entire pool of the four newly constructed mutants, the mutants were combined and the mixture directly tested for ability to convert compounds (2), (108), (89), (102), (38), and (127). […] Those substrates turned over include […] and (127), the two sugar phosphates not accepted or poorly accepted by wild-type Ep.
as §2

| Molecule | activity as Ep substrate with TTP [1] | product formation with dTTP [2] | further results |
| --- | --- | --- | --- |
| O=P([O-])([O-])O[C@H]1O[C@H](CO)[C@H](O)[C@H](O)[C@@H]1O.[Na+].[Na+] [compound 55, Disodium α-D-talopyranosyl Phosphate] | less activity |  |  |
| C[C@H]1O[C@H](OP(=O)([O-])[O-])[C@H](O)[C@@H](O)[C@@H]1N.[Na+].[Na+] [compound 102, Disodium-(4-amino-4,6-dideoxy-α-D-glucopyranosyl) Phosphate] |  | does not effect | product formation with UTP [2]: greatly diminishes |
| O=P(O)(O)O[C@H]1O[C@H](CO)[C@H](O)[C@H](O)[C@H]1O [compound 57, α-D-galactopyranosyl phosphate, reference compound] | prefers |  |  |
| O=P([O-])([O-])O[C@H]1O[C@H](CO)C[C@H](O)[C@H]1O.[Na+].[Na+] [compound 20, Disodium 4-deoxy-α-D-glucopyranosyl Phosphate] | prefers |  |  |
| CC(=O)N[C@H]1[C@H](O)[C@@H](O)[C@@H](OP(=O)([O-])[O-])O[C@@H]1CO.[Na+].[Na+] [compound 92, Disodium-(4-acetamido-4-deoxy-α-D-glucopyranosyl) Phosphate] |  | less activity |  |
| O=C(O)[C@H]1O[C@H](OP(=O)(O)O)[C@H](O)[C@@H](O)[C@@H]1O [compound 127, α-D-glucopyranuronic acid 1-(dihydrogen phosphate)] |  |  | acceptance / conversion by wild-type Ep [3]: not accepted; conversion by Trp224His mutant [4]: responsible for converting; turnover by the mutant pool [5]: turned over |
| O=P([O-])([O-])O[C@H]1O[C@H](CO)[C@H](O)[C@@H](O)[C@@H]1O.[Na+].[Na+] [compound 51, Disodium α-D-idopyranosyl Phosphate] | less activity |  |  |
| C[C@H]1O[C@H](OP(=O)([O-])[O-])[C@H](O)[C@@H](O)[C@@H]1O.[Na+].[Na+] [compound 12, Disodium 6-deoxy-α-D-glucopyranosyl Phosphate] | prefers |  |  |
| Nc1ccn([C@@H]2O[C@H](COP(=O)(O)OP(=O)(O)OP(=O)(O)O)[C@@H](O)[C@H]2O)c(=O)n1 [CTP, reference compound] |  |  | utilization as NTP substrate by Ep [1]: not and not accepted |
| O=P([O-])([O-])O[C@H]1O[C@H](CO)[C@@H](O)[C@@H](O)[C@H]1O.[Na+].[Na+] [compound 38, Disodium α-D-allopyranosyl Phosphate] | less activity |  | acceptance / conversion by wild-type Ep [3]: poor conversion |
| N[C@H]1[C@@H](OP(=O)(O)O)O[C@H](CO)[C@@H](O)[C@@H]1O [compound 107, 2-amino-2-deoxy-α-D-glucopyranosyl phosphate, reference compound] |  | little or no effect |  |
| O=P([O-])([O-])O[C@@H]1C[C@@H](O)[C@H](O)[C@@H](CO)O1.[Na+].[Na+] [compound 43, Disodium 2-deoxy-α-D-glucopyranosyl Phosphate] | prefers |  | Product hydrolysis observed, TDP ([1]; FIG. 2 footnote (e), TTP reaction): 7.6%; Product hydrolysis observed, UDP ([1]; FIG. 2 footnote (e), UTP reaction): 10.2% |
| NC[C@H]1O[C@H](OP(=O)([O-])[O-])[C@H](O)[C@@H](O)[C@@H]1O.[Na+].[Na+] [compound 85, Disodium-(6-amino-6-deoxy-α-D-glucopyranosyl) Phosphate] |  | little or no effect | product formation with UTP ([2]; Phosphate): exception; also recorded: adverse UTP-dependent effect upon yields |
| N[C@H]1[C@H](O)[C@@H](O)[C@@H](OP(=O)([O-])[O-])O[C@@H]1CO.[Na+].[Na+] [compound 91, Disodium-(4-amino-4-deoxy-α-D-glucopyranosyl) Phosphate] |  | little or no effect |  |
| O=c1ccn([C@@H]2O[C@H](COP(=O)(O)OP(=O)(O)OP(=O)(O)O)[C@@H](O)[C@H]2O)c(=O)[nH]1 [UTP, reference compound] |  |  | utilization as NTP substrate by Ep [1]: utilizes |
| O=P(O)(O)O[C@H]1O[C@H](CO)[C@@H](O)[C@H](O)[C@@H]1O [compound 56, α-D-mannopyranosyl phosphate, reference compound] | prefers |  |  |
| O=P([O-])([O-])O[C@H]1O[C@H](CO)[C@@H](O)[C@@H](O)[C@@H]1O.[Na+].[Na+] [compound 47, Disodium α-D-altropyranosyl Phosphate] | less activity |  |  |
| Ethyl 2,3,4,6-tetra-O-benzyl-1-thio-β-D-gulopyranoside [compound 31] | less activity |  |  |
| N[C@@H]1[C@@H](O)[C@@H](OP(=O)([O-])[O-])O[C@H](CO)[C@H]1O.[Na+].[Na+] [compound 96, Disodium (3-amino-3-deoxy-α-D-glucopyranosyl) Phosphate] |  | little or no effect |  |
| CC(=O)N[C@@H]1[C@@H](O)[C@@H](OP(=O)([O-])[O-])O[C@H](CO)[C@H]1O.[Na+].[Na+] [compound 97, Disodium-(3-acetamido-3-deoxy-α-D-glucopyranosyl) Phosphate] |  | well-tolerated | product formation with UTP [2]: adverse UTP-dependent effect upon yields |
| O=P([O-])([O-])O[C@H]1O[C@H](CO)[C@@H](O)C[C@H]1O.[Na+].[Na+] [compound 28, Disodium 3-deoxy-α-D-glucopyranosyl Phosphate] | prefers |  |  |
